How the values were obtained:
rape = test: Test B pre/postemergence rape; type: in vivo, Brassica napus; settings: Preemergence
Method in brief: (§1)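 Response is a visual 0-to-10 score relative to untreated plants, where 0 means no effect and 10 means complete control, taken twelve to sixteen days after application. Treatments went onto soil at planting and onto foliage of 1- to 4-leaf plants, using a surfactant-containing non-phytotoxic solvent.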

cocklebur = test: Test B pre/postemergence cocklebur; type: in vivo, Xanthium strumarium
Method in brief: as §1

corn = test: Test B pre/postemergence corn; type: in vivo, Zea mays
Method in brief: as §1

morningglory = test: Test B pre/postemergence morningglory; type: in vivo, Ipomoea hederacea
Method in brief: as §1

soybean = test: Test B pre/postemergence soybean; type: in vivo, Glycine max
Method in brief: as §1

pigweed = test: Test B pre/postemergence pigweed; type: in vivo, Amaranthus retroflexus
Method in brief: as §1

velvetleaf = test: Test B pre/postemergence velvetleaf; type: in vivo, Abutilon theophrasti
Method in brief: as §1

giant foxtail = test: Test B pre/postemergence giant foxtail; type: in vivo, Setaria faberii
Method in brief: as §1

bedstraw = test: Test B pre/postemergence bedstraw; type: in vivo, Galium aparine
Method in brief: as §1

blackgrass = test: Test B pre/postemergence blackgrass; type: in vivo, Alopecurus myosuroides
Method in brief: as §1

sugar beet = test: Test B pre/postemergence sugar beet; type: in vivo, Beta vulgaris
Method in brief: as §1

wild oat = test: Test B pre/postemergence wild oat; type: in vivo, Avena fatua
Method in brief: as §1

surinam grass = test: Test B pre/postemergence surinam grass; type: in vivo, Brachiaria decumbens; settings: Postemergence
Method in brief: as §1

wheat = test: Test B pre/postemergence wheat; type: in vivo, Triticum aestivum
Method in brief: as §1

purple nutsedge = test: Test B pre/postemergence purple nutsedge; type: in vivo, Cyperus rotundus
Method in brief: as §1

crabgrass = test: Test B pre/postemergence crabgrass; type: in vivo, Digitaria sanguinalis
Method in brief: as §1

[1] = Postemergence, Rate 62 g/ha, scale 0 to 10, 0 is no effect, 10 is complete control
[2] = Postemergence, Rate 125 g/ha, scale of 0 to 10 where 0 is no effect and 10 is complete control
[3] = Postemergence, Rate 500 g/ha, scale 0 (no effect) to 10 (complete control)
[4] = Preemergence, Rate 250 g/ha, scale 0 (no effect) to 10 (complete control)
[5] = Rate 62 g/ha, Preemergence, scale 0 to 10
[6] = Rate 125 g/ha, Preemergence, scale 0 to 10 (0 no effect, 10 complete control)
[7] = Rate 250 g/ha, Postemergence, scale 0 to 10, 0 is no effect, 10 is complete control
[8] = Rate 500 g/ha, Preemergence, scale 0 to 10 (0 no effect, 10 complete control)

C#CCCn1c(=O)on(C(=O)N(c2ccc(F)cc2)C(C)C)c1=O [Compound 767]
3: Velvetleaf plant response rating (velvetleaf; [3]) | Plant response rating, Sugarbeets (sugar beet; [1]) | Wild oats plant response rating (wild oat; [3])
10: Rape plant response rating (rape; Rate 500 g/ha, scale 0 to 10 (0 no effect, 10 complete control)) | Redroot pigweed plant response rating (pigweed; [5]) | Redroot pigweed plant response rating (pigweed; [6]) | Redroot pigweed plant response rating (pigweed; [8]) | Giant foxtail plant response rating (giant foxtail; [4]) | Giant foxtail plant response rating (giant foxtail; [5]) | Giant foxtail plant response rating (giant foxtail; [6]) | Giant foxtail plant response rating (giant foxtail; [8]) | Blackgrass plant response rating (blackgrass; [4]) | Blackgrass plant response rating (blackgrass; [5]) | Blackgrass plant response rating (blackgrass; [6]) | Blackgrass plant response rating (blackgrass; [8]) | Crabgrass plant response rating (crabgrass; [4]) | Crabgrass plant response rating (crabgrass; [5]) | Crabgrass plant response rating (crabgrass; [6]) | Crabgrass plant response rating (crabgrass; [8])
9: Redroot pigweed plant response rating (pigweed; [2]) | Redroot pigweed plant response rating (pigweed; [3]) | Redroot pigweed plant response rating (pigweed; [7]) | Giant foxtail plant response rating (giant foxtail; [3]) | Giant foxtail plant response rating (giant foxtail; [7]) | Bedstraw plant response rating (bedstraw; [3]) | Plant response rating, Blackgrass (blackgrass; [1]) | Blackgrass plant response rating (blackgrass; [2]) | Blackgrass plant response rating (blackgrass; [3]) | Blackgrass plant response rating (blackgrass; [7]) | Sugarbeets plant response rating (sugar beet; [8]) | Wild oats plant response rating (wild oat; [5]) | Wild oats plant response rating (wild oat; [8]) | Crabgrass plant response rating (crabgrass; [3]) | Crabgrass plant response rating (crabgrass; [7])
5: Corn plant response rating (corn; [8]) | Plant response rating, Morningglory (morningglory; [1]) | Morningglory plant response rating (morningglory; [2]) | Morningglory plant response rating (morningglory; [7]) | Sugarbeets plant response rating (sugar beet; [7]) | Wheat plant response rating (wheat; [6]) | Wheat plant response rating (wheat; [8])
4: Rape plant response rating (rape; Rate 62 g/ha, scale 0 to 10) | Soybean plant response rating (soybean; [7])
7: Morningglory plant response rating (morningglory; [3]) | Soybean plant response rating (soybean; [3]) | Plant response rating, Bedstraw (bedstraw; [1]) | Bedstraw plant response rating (bedstraw; [2]) | Bedstraw plant response rating (bedstraw; [7]) | Sugarbeets plant response rating (sugar beet; [3]) | B. signalgrass plant response rating (surinam grass; Rate 500 g/ha, scale 0 to 10, 0 is no effect, 10 is complete control) | Nutsedge plant response rating (purple nutsedge; [3])
1: Plant response rating, Soybean (soybean; [1])
6: Rape plant response rating (rape; Rate 125 g/ha, scale 0 to 10 (0 no effect, 10 complete control)) | Plant response rating, Redroot pigweed (pigweed; [1]) | Sugarbeets plant response rating (sugar beet; [6]) | B. signalgrass plant response rating (surinam grass; Rate 250 g/ha, scale 0 to 10, 0 is no effect, 10 is complete control)
8: Plant response rating, Giant foxtail (giant foxtail; [1]) | Giant foxtail plant response rating (giant foxtail; [2]) | Bedstraw plant response rating (bedstraw; [8]) | Plant response rating, Crabgrass (crabgrass; [1]) | Crabgrass plant response rating (crabgrass; [2])
0: Cocklebur plant response rating (cocklebur; [4]) | Cocklebur plant response rating (cocklebur; [5]) | Cocklebur plant response rating (cocklebur; [6]) | Cocklebur plant response rating (cocklebur; [8]) | Plant response rating, Corn (corn; [1]) | Corn plant response rating (corn; [2]) | Corn plant response rating (corn; [4]) | Corn plant response rating (corn; [5]) | Corn plant response rating (corn; [6]) | Corn plant response rating (corn; [7]) | Morningglory plant response rating (morningglory; [5]) | Morningglory plant response rating (morningglory; [6]) | Morningglory plant response rating (morningglory; [8]) | Soybean plant response rating (soybean; [5]) | Soybean plant response rating (soybean; [6]) | Velvetleaf plant response rating (velvetleaf; [5]) | Velvetleaf plant response rating (velvetleaf; [6]) | Bedstraw plant response rating (bedstraw; [6]) | Plant response rating, Wild oats (wild oat; [1]) | Wild oats plant response rating (wild oat; [7]) | Plant response rating, Wheat (wheat; [1]) | Wheat plant response rating (wheat; [5]) | Plant response rating, Nutsedge (purple nutsedge; [1]) | Nutsedge plant response rating (purple nutsedge; [2]) | Nutsedge plant response rating (purple nutsedge; [5]) | Nutsedge plant response rating (purple nutsedge; [6]) | Nutsedge plant response rating (purple nutsedge; [7]) | Nutsedge plant response rating (purple nutsedge; [8])
2: Plant response rating, Cocklebur (cocklebur; [1]) | Cocklebur plant response rating (cocklebur; [2]) | Cocklebur plant response rating (cocklebur; [3]) | Cocklebur plant response rating (cocklebur; [7]) | Corn plant response rating (corn; [3]) | Soybean plant response rating (soybean; [8]) | Plant response rating, Velvetleaf (velvetleaf; [1]) | Velvetleaf plant response rating (velvetleaf; [7]) | Velvetleaf plant response rating (velvetleaf; [8]) | Sugarbeets plant response rating (sugar beet; [5]) | Plant response rating, B. signalgrass (surinam grass; Rate 62 g/ha, scale 0 to 10, 0 is no effect, 10 is complete control) | B. signalgrass plant response rating (surinam grass; Rate 125 g/ha, scale of 0 to 10 where 0 is no effect and 10 is complete control) | Wheat plant response rating (wheat; [3]) | Wheat plant response rating (wheat; [7])

Source: US6737383B1, “Herbicidal oxadiazolidines” (priority 1999, dated 2004)
